Assay results published in patent publication EP4737445A1, “NOVEL SATURATED HETEROCYCLE-SUBSTITUTED HETEROARYL-CARBONOHYDRAZONOYL DICYANIDE COMPOUND AND USE THEREOF” (Korea Institute of Science and Technology, priority 2023, dated 2025).

How the values were obtained:
tau [1] = molecular target: T1, tau (Homo sapiens, UniProt P10636, P618L); test: Tau-BiFC fluorescence imaging of brain tissue (tau oligomer/aggregate formation); assay type: in vivo; conditions: TauP301L-BiFC mice; oral 10 mg/kg, 19 weeks; vehicle = 100%
T1 construct: BiFC fluorescent-protein fragments (two complementary halves); from tissue; host or cells: brain of TauP301L-BiFC transgenic mice
T1 sequence (P10636 1-441 isoform P10636-8 P301L): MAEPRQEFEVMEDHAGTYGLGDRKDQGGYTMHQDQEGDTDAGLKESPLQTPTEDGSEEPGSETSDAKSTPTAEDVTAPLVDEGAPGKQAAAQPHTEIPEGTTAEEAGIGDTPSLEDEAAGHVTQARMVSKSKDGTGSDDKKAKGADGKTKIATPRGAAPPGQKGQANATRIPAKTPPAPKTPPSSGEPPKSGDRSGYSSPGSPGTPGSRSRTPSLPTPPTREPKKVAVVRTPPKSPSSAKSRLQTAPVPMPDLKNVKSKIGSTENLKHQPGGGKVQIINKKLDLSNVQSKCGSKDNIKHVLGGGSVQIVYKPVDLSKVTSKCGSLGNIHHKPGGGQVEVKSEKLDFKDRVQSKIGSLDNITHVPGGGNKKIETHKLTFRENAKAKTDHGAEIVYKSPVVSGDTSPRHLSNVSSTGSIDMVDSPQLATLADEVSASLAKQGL
Method: After oral administration of Compounds 6, 16, and 20 and completion of behavioral experiments, 13.2-month-old TauP301L-BiFC mice were sacrificed to proceed with brain tissue extraction and [2] brain lysate separation and purification. • [1] First, brain tissue extraction, BiFC fluorescence imaging of brain tissue, and tau phosphorylation antibody immunofluorescence were performed through the following process. TauP301L-BiFC mice were perfused with 0.9% saline and fixed with PBS (pH 7.4) solution containing 4% paraformaldehyde. The brain was extracted and fixed in PBS containing 4% paraformaldehyde at 4°C for 48 to 72 hours. For cryoprotection, the brain was transferred to PBS containing 30% sucrose solution and stored at 4°C until it sank. For frozen sectioning, the brain was immersed in O.C.T (Tissue-TEK) and frozen, and then continuously cut using a brain tissue sectioner. Tissue sections with a thickness of 30 µm were stored in PBS containing 0.05% sodium azide at 4°C.
Brain tissue sections (n=10 per group) were placed on slides, stained with Sudan Black B solution (70% ethanol containing 0.05% Sudan Black B) for 10 minutes to reduce autofluorescence, washed 3 times with PBS containing 0.1% Triton X-100, and then washed with distilled water. For nuclear staining, brain tissue sections were stained with Hoechst (0.5 µg/mL) for 30 minutes. BiFC fluorescence (λex=460-490 nm and λem=500-550 nm) images were acquired using Axio Scan.Z1 (ZEISS). For quantitative analysis, the average BiFC-fluorescence intensity was measured in the somatosensory cortex (layer V) and hippocampus CA1, and the habenular region was used as a control region to reduce background fluorescence differences between brain samples. ImageJ software (NIH) was used to mark regions of interest and calculate fluorescence intensity values, and the data were expressed as the average fluorescence intensity and standard deviation of brain tissue images from 10 mice per group.
As a result of Tau-BiFC fluorescence imaging of four regions of total brain tissue (hippocampus (CA1), somatosensory cortex, cerebellum, brainstem), the degree of Tau-BiFC fluorescence appearing as tau aggregation early oligomer formation and aggregate formation was as follows: • (1) Hippocampus (CA1), vehicle = 100%, #20= 79%, p<0.05, #6= 80%, p<0.05, #16= 72%, p<0.001. • (2) Sensory cortex (SCTX), vehicle = 100%, #20= 72%, p<0.05, #6= 73%, p<0.05, #16= 66%, p<0.01. • (3) Cerebellum (CB), vehicle = 100%, #20= 64%, p<0.05, #6= 68%, ns, #16= 76%, n.s. • (4) Brain stem, vehicle = 100%, #20= 60%, p<0.05, #6= 62%, p<0.05, #16= 60%, p<0.05.

tau [2] = molecular target: T1, tau; test: Tau phosphorylation immunoblot of RIPA-soluble brain lysates; assay type: in vivo; conditions: TauP301L-BiFC mice, oral 10 mg/kg, 19 weeks, vehicle = 100%
Method: [2] To verify the tau pathology inhibitory efficacy of the drug confirmed through brain tissue imaging via brain lysate immunoblot, brain lysates were separated and purified, and immunoblot using tau antibody was performed in soluble and insoluble fractions. The brain was weighed, and RIPA lysis buffer containing the corresponding dose of protease and phosphatase inhibitors was added to the brain tissue. The tissue was then disrupted using a homogenizer and incubated at 4°C for 2 hours, and then centrifuged at 13,200 rpm at 4°C for 20 minutes. After centrifugation, the supernatant was collected as a RIPA-soluble fraction and stored at -80°C. To prepare the RIPA-insoluble fraction, the remaining pellet was washed once with RIPA lysis buffer containing 1 M sucrose, and then 2% SDS solution (1 mL per 1 g of tissue) was added and incubated at room temperature for 1 hour. Thereafter, the mixture was centrifuged at 13,200 rpm for 1 minute at room temperature, and the supernatant was collected as a RIPA-insoluble fraction and stored at -80°C.
For tau immunoblot analysis, 20 µg of brain tissue RIPA-soluble sample was separated on a 10% SDS-PAGE gel and transferred to a PVDF membrane, and RIPA-insoluble samples were diluted 10-fold in 2% SDS solution and 20 µL of each sample was loaded on an SDS-PAGE gel. The total tau and phosphorylated tau levels were detected by Tau5, which is an anti-tau antibody, and pS199 and pS396, which are anti-phosphorylated tau antibodies. ImageJ software (NIH) was used to quantify band intensity.

Compound	Tau-BiFC fluorescence, Brain stem (tau [1]) [%]	Tau-BiFC fluorescence, Cerebellum (CB) (tau [1]) [%]	Tau-BiFC fluorescence, Hippocampus (CA1) (tau [1]) [%]	Tau-BiFC fluorescence, Sensory cortex (SCTX) (tau [1]) [%]	pS199 tau phosphorylation immunoblot (tau [2]) [%]	pS396 tau phosphorylation immunoblot (tau [2]) [%]
N#CC(C#N)=NNc1ccc2nc(N3C4CCC3COC4)oc2c1 [Compound 20, (2-(3-oxa-8-azabicyclo[3.2.1]octan-8-yl)benzo[d]oxazol-6-yl)carbonohydrazonoyl dicyanide]	60	64	79	72	60	71
Cn1c(N2CCOCC2)nc2cc(NN=C(C#N)C#N)ccc21 [Compound 6, (1-methyl-2-morpholino-1H-benzo[d]imidazol-5-yl)carbonohydrazonoyl dicyanide]	62	68	80	73	48	60
CC1COCCN1c1nc2ccc(NN=C(C#N)C#N)cc2o1 (stereo not drawn) [Compound 16, (2-(3-methylmorpholino)benzo[d]oxazol-6-yl)carbonohydrazonoyl dicyanide]	60	76	72	66	24	40
